The record followed here is patent US9222093B2, “Two-way, portable riboswitch mediated gene expression control device” (THE UNIVERSITY OF HONG KONG, priority 2011, dated 2015).

In assay [1] the target is T1, LacI repressor protein (Escherichia coli, UniProt P03023).
T1 construct: ON-lacI riboswitch 302 was incorporated into the chromosome upstream from intact lad gene (i.e., not fused with lacZ); endogenous in cells; host or cells: E. coli MG1655 derivative with ON-lacI riboswitch on the chromosome and intact lacZ locus
T1 sequence (P03023 whole entry, the tested form may be a part): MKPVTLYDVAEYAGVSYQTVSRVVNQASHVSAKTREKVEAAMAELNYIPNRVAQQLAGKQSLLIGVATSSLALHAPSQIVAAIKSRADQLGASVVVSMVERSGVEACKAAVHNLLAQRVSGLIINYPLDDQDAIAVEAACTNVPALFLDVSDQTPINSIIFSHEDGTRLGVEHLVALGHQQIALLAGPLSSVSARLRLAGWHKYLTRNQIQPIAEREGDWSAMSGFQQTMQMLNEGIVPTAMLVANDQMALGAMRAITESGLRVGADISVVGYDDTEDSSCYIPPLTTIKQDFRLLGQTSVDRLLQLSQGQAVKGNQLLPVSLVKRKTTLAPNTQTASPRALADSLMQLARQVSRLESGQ
The assay is described as follows: β-galactosidase assay of lacZ in cells carrying ON-lacI riboswitch and intact lacZ (IPTG arm of two-way control). The class given is cell-based, E. coli MG1655. Conditions: medium containing 1600 μM theophylline. The text has this: (§1) The loxP-cat-loxP selectable cassette was inserted immediately after the stop codon of the lacZ gene on the MG1655 chromosome using recombineering methods. Next, the lacZ-loxP-cat-loxP cassette was PCR amplified and inserted (in frame) immediately prior to the stop codon of the target gene on the chromosome. The inserted lacZ fragment started from the 8th codon of the lacZ gene, and was co-transcribed and translated with the fused genes. The expression of gene-lacZ fusions was quantified using a β-galactosidase assay. Levels of β-galactosidasewere calculated using the following formula: units (U)=[…]
ON-lacI riboswitch 302 makes two-way gene regulation possible because the Lad repressor protein can be inactivated by isopropyl β-D-1-thiogalactopyranoside (IPTG). Thus, adding theophylline to the culture medium switches on lacI translation, and transcriptionally represses the target genes of LacI. In contrast. IPTG inactivates LacI by binding to the protein and derepresses transcription of the target genes.
Two-way control was verified by determining β-galactosidase levels of the cells carrying both ON-lacI riboswitch 302 and an intact lacZ gene locus. Theophylline and IPTG regulated lacZ in opposite directions in a concentration-dependent manner (graph 312, FIG. 3D). The effective concentration range of theophylline was 100-1600 μM. […]

Assay [2] has as its system rpoS gene locus. As to the kind of experiment: Acid survival of ON-lacI-rpoS strain (pH 2.0, 2 hours). It is filed as cell-based, E. coli. The text has this:
The ON-lacI-LacIbs cassette (2500 bp) from the genome of the strain carrying the ON riboswitch of lacI is amplified using […]. Cassette 602 is composed of the cat gene, the ON-lacI riboswitch, the lacI gene, and the lacI-lacZ intergenic region containing two LacIbs. The cat gene facilitates integration of this cassette immediately upstream of any target gene via recombineering. The riboswitch cassette was inserted upstream of the ribosomal binding site of rpoS gene locus […] (FIG. 6A). Next, the native lacI was deleted from this strain, generating a new mutant strain, ON-lacI-rpoS. This strain was used to test whether rpoS gene locus 606 could be controlled by the theophylline-responsive and LacI-repressible regulation cassette 602. Since rpoS is required for acid resistance, survival of strain […] under acidic conditions was assayed. Overnight cultures were treated with acid (pH 2.0) for 2 hours, and then serially diluted in neutral medium. After culturing overnight, colony forming units (CFU) of acid-treated and untreated cells were determined Acid survival (%) was calculated using the formula: Acid survival (%)=100×(CFU of treated/CFU of untreated).

Assay [3] has as its system CsrB locus. As to the kind of experiment: Autoaggregation and biofilm formation of ON-lacI strain harboring pLacIb-CsrB. It is filed as cell-based, E. coli. The text has this: CsrB locus 706 has previously been cloned into a high copy vector (plasmid) 704. Two LacIbs 112 were inserted around the transcriptional start site to place expression of CsrB locus 706 under the control of ON-lacI riboswitch 302. Since one LacIb is after the transcriptional start site, the resulting CsrB differs slightly from the native one by the extra 21 nt-sequence (i.e. LacIb). […] This CsrB-carrying vector 704 was introduced into the ON-lacI strain, and autoaggregation and biofilm formation were examined.
To measure autoaggregation, overnight cultures were diluted 1:500 and incubated at 37° C., with shaking at 220 rpm, in liquid LB medium. When cells aggregated (visualized macroscopically by the clumping or ‘fluffing’ of cells in liquid cultures), 100 μl of each cell suspension was transferred to flat-bottom 96-well plates (Iwaki, Tokyo, Japan) and the images of the cell aggregates were captured by scanning. To better visualize the cell aggregates, 1 μl of crystal violet (0.1%) was added to each cell suspension immediately prior to image capture. Cellular autoaggregation was also examined microscopically. Cell suspensions were spread on a microscope slide, heat-fixed, stained with DAPI (4′6-diamidino-2-phenylindol), and imaged using a fluorescence stereomicroscope SZX12 (Olympus, Tokyo, Japan) with DAPI filter sets.
Biofilms were formed on polystyrene, flat-bottom 96-well microtiter plates (Iwaki, Tokyo, Japan). 200 μl of each cell suspension (10^5 cells/ml) was transferred into each well of a microtiter plate, and incubated for 24 h at 37° C. in a shaker at 75 rpm. Resulting biofilms were washed thrice with PBS and air dried. Then, biofilms were stained with […] of 0.4% aqueous crystal violet solution for 15 min. Next, biofilms were washed three times with sterile distilled water and immediately destained with 200 μl of 95% ethanol. After 30 min of destaining, 100 μl of destaining solution was transferred to a new well and measured with a microtiter plate reader (SpectraMAX®340 Tunable Microplate Reader; Molecular Devices Ltd.) at 595 nm.

The subject of assay [4] is wild type strain. The assay is described as follows: Extracellular acetate assimilation, wild type strain. The class given is cell-based, E. coli. As to conditions: data not shown. The text has this:
(§2) Bacterial cells switch from rapid growth during which they produce and excrete acetate (dissimilation) in the presence of abundant nutrients to slower growth supported by the import and utilization of the excreted acetate (assimilation) when glucose is exhausted. This physiological event is defined as an acetate switch, a survival response allowing cells to compete successfully during carbon starvation. It was previously reported that RpoS positively regulates consumption of acetate by activating the expression of acetyl-coenzyme A synthetase enzyme (Acs). However, the opposite results were obtained with ON-lacI-rpoS construction provided herein. […] When grown in the presence of theophylline (2 mM) and absence of IPTG, rpoS expression was shut off and accordingly, acetate assimilation was accelerated (FIG. 8A). […] The enhanced acetate assimilation was also observed with the newly constructed rpoS gene locus null mutant, shown in graph 804 (FIG. 8B). […] It is therefore apparent that RpoS represses acetate assimilation.

The test system of assay [5] is ON-lacI-rpoS cells. As to the kind of experiment: Extracellular acetate assimilation. The class given is cell-based, E. coli.
Description: as §2

In assay [6] the test system is ON-lacI riboswitch. As to the kind of experiment: β-galactosidase assay of lacZ in cells carrying ON-lacI riboswitch and intact lacZ (theophylline arm of two-way control). It is filed as cell-based, E. coli MG1655.
Description: as §1
ON-lacI riboswitch 302 was incorporated into the chromosome upstream from intact lad gene (i.e., not fused with lacZ). The LacI protein represses expression of lacZ so that ON riboswitch 302 indirectly switches off lacZ in response to theophylline.
Two-way control was verified by determining β-galactosidase levels of the cells carrying both ON-lacI riboswitch 302 and an intact lacZ gene locus. Theophylline and IPTG regulated lacZ in opposite directions in a concentration-dependent manner (graph 312, FIG. 3D). The effective concentration range of theophylline was 100-1600 μM. […] When IPTG was added to the medium containing 1600 μM theophylline, lacZ was derepressed. The effective range of IPTG was 0.16-40 μM.

Assay [7] has as its system ON-crp strain. The assay is described as follows: Motility of ON-crp strain on semisolid motility plates. The class given is cell-based, E. coli MG1655. As to conditions: theophylline ligand added; increased with higher theophylline concentrations. How it is done: The motility phenotype of the ON-crp strain was assayed to further confirm the effectiveness of the ON-riboswitch.

Assay [8] relates to lacI-lacZ fusion. As to the kind of experiment: β-galactosidase assay of lacI-lacZ translational fusion. Conditions: E. coli mutant containing ON-lacI riboswitch; with vs without theophylline. The class given is cell-based, E. coli MG1655.
Description: as §1
To engineer an ON-riboswitch of the lacI gene, riboswitch cassette 302, cat-aptamer-linker-random sequence, was integrated upstream of the ribosomal binding site of lacI-lacZ usion 304 on the chromosome using standard recombineering methods (FIG. 3A).
The resulting mutant collection was grown on X-gal plates 306 in the absence of theophylline. Approximately 2000 colonies were screened for color. Two white clones were identified. […]

Setting [9] is: in the presence of theophylline.

Take `CC(C)S[C@@H]1O[C@H](CO)[C@H](O)[C@H](O)[C@H]1O` [IPTG, isopropyl β-D-1-thiogalactopyranoside]: in assay [1], the “effective range of IPTG (lacZ derepression)” value is 0.16 to 40 µM. In addition, in assay [2] (40 μM IPTG in medium containing 1600 μM theophylline), the acid survival entry is listed as “restored to the wild-type levels”. The “autoaggregation and biofilm formation” value in assay [3] (IPTG added together with theophylline) is listed as “restored”. The “effect on acetate assimilation in the wild type strain” value in assay [4] was “Neither theophylline nor IPTG had any effect”. For the same compound, in assay [5] (IPTG 1 mM added to the theophylline medium), the acetate assimilation entry was “restored to the wild-type levels”.
With `Cn1c(=O)c2[nH]cnc2n(C)c1=O` [theophylline], the “lacZ expression in the presence of theophylline” value in assay [6] (ON-lacI combined with LacIbs upstream from lacZ) was “almost completely repressed”. For the same compound, the “effective concentration range of theophylline (lacZ regulation)” value in assay [6] (cells carrying ON-lacI riboswitch and intact lacZ, repression, saturation above the range) lay within 100 to 1600 µM. In addition, the “lacZ regulation at theophylline concentrations less than 100 μM” value in assay [6] (theophylline less than 100 μM) is reported as “little regulation”. Also, in assay [7], the motility entry was “gained motility”. The acid survival entry in assay [2] (1600 μM theophylline) is on record as “comparable to that of an rpoS null mutant”. In addition, in assay [3] (setting [9]), the autoaggregation result was “negative with respect to autoaggregation” and the biofilm formation entry was “low levels of biofilms”. Further, the “effect on acetate assimilation in the wild type strain” value in assay [4] is given as “Neither theophylline nor IPTG had any effect”. Moreover, the “LacI levels in the presence of the ligand” value in assay [8] is “one fold-increase”. In addition, the acetate assimilation entry in assay [5] (theophylline 2 mM, absence of IPTG) is “accelerated”.
